Columns and labels:
Assay type in all cases: in vivo
Conditions in all cases: evaluated after 13 days
[1] = test system: Zea mays (ZEAMX); assay: Pre-emergence Test, Zea mays (ZEAMX)
[2] = test system: Amaranthus retoflexus (AMARE); assay: Pre-emergence Test, Amaranthus retoflexus (AMARE)
[3] = test system: Echinochloa crus-galli (ECHCG); assay: Post-emergence Test, Echinochloa crus-galli (ECHCG); design: key to percentage damage caused to the plant, ECHCG (five-point scale): 5=81-100%, 4=61-80%, 3=41-60%, 2=21-40%, 1=0-20% damage
Summary of the method: (§1)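 Application was a spray of acetone/water (50:50) with 0.5% Tween 20 onto pots of test species sown in standard soil. Unless otherwise stated, the rate was 1000 g/ha. After 13 days under glasshouse conditions (24/16 °C, 65% humidity), injury was scored from 1 (0-20%) to 5 (81-100%).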

[4] = test system: Ipomoea hederacea (IPOHE); assay: Pre-emergence Test, Ipomoea hederacea (IPOHE)
[5] = test system: Setaria faberi (SETFA); assay: Pre-emergence Test, Setaria faberi (SETFA)
[6] = test system: Zea mays (ZEAMX); assay: Post-emergence Test, Zea mays (ZEAMX); design: key to percentage damage caused to the plant, ZEAMX (five-point scale): 5=81-100%, 4=61-80%, 3=41-60%, 2=21-40%, 1=0-20% damage
Summary of the method: as §1

[7] = test system: Setaria faberi (SETFA); assay: Post-emergence Test, Setaria faberi (SETFA); design: key to percentage damage caused to the plant, SETFA (five-point scale): 5=81-100%, 4=61-80%, 3=41-60%, 2=21-40%, 1=0-20% damage
Summary of the method: as §1

[8] = test system: Ipomoea hederacea (IPOHE); assay: Post-emergence Test, Ipomoea hederacea (IPOHE); design: key to percentage damage caused to the plant, IPOHE (five-point scale): 5=81-100%, 4=61-80%, 3=41-60%, 2=21-40%, 1=0-20% damage
Summary of the method: as §1

[9] = test system: Amaranthus retoflexus (AMARE); assay: Post-emergence Test, Amaranthus retoflexus (AMARE); design: key to percentage damage caused to the plant, AMARE (five-point scale): 5=81-100%, 4=61-80%, 3=41-60%, 2=21-40%, 1=0-20% damage
Summary of the method: as §1

[10] = test system: Amaranthus palmeri (AMAPA); assay: Post-emergence Test, Amaranthus palmeri (AMAPA); design: key: 5=81-100%, 4=61-80%, 3=41-60%, 2=21-40%, 1=0-20% damage
Summary of the method: as §1

[11] = test system: Echinochloa crus-galli (ECHCG); assay: Pre-emergence Test, Echinochloa crus-galli (ECHCG)
[12] = test system: Amaranthus palmeri (AMAPA); assay: Pre-emergence Test, Amaranthus palmeri (AMAPA)

SMILES	Pre-emergence Test ZEAMX, percentage damage caused to the plant (five-point scale) ([1]; 250 g/Ha (*))	Pre-emergence Test ZEAMX, percentage damage caused to the plant (five-point scale) ([1]; 1000 g/ha)	Pre-emergence Test AMARE, percentage damage caused to the plant (five-point scale) ([2]; 250 g/Ha (*))	Pre-emergence Test AMARE, percentage damage caused to the plant (five-point scale) ([2]; 1000 g/ha)	percentage damage caused to the plant, ECHCG (five-point scale) ([3]; 250 g/Ha)	percentage damage caused to the plant, ECHCG (five-point scale) ([3]; 1000 g/ha)	Pre-emergence Test IPOHE, percentage damage caused to the plant (five-point scale) ([4]; 250 g/Ha (*))	Pre-emergence Test IPOHE, percentage damage caused to the plant (five-point scale) ([4]; 1000 g/ha)	Pre-emergence Test SETFA, percentage damage caused to the plant (five-point scale) ([5]; 250 g/Ha (*))	Pre-emergence Test SETFA, percentage damage caused to the plant (five-point scale) ([5]; 1000 g/ha)	percentage damage caused to the plant, ZEAMX (five-point scale) ([6]; 250 g/Ha)	percentage damage caused to the plant, ZEAMX (five-point scale) ([6]; 1000 g/ha)	percentage damage caused to the plant, SETFA (five-point scale) ([7]; 250 g/Ha)	percentage damage caused to the plant, SETFA (five-point scale) ([7]; 1000 g/ha)	percentage damage caused to the plant, IPOHE (five-point scale) ([8]; 250 g/Ha)	percentage damage caused to the plant, IPOHE (five-point scale) ([8]; 1000 g/ha)	percentage damage caused to the plant, AMARE (five-point scale) ([9]; 250 g/Ha)	percentage damage caused to the plant, AMARE (five-point scale) ([9]; 1000 g/ha)	percentage damage caused to the plant, AMAPA (five-point scale) ([10]; 250 g/Ha)	percentage damage caused to the plant, AMAPA (five-point scale) ([10]; 1000 g/ha)	other results
CCn1c(Cn2ccc(OCCOC)n2)cc(=O)c(C(=O)O)c1-c1ccc(Cl)c(Cl)c1 [Compound 161, 2-(3,4-dichlorophenyl)-1-ethyl-6-[[3-(2-methoxyethoxy)pyrazol-1-yl]methyl]-4-oxo-pyridine-3-carboxylic acid]	0	0	0	0	2 (2=21-40%)	3 (3=41-60%)	0	3 (3=41-60%)	1 (1=0-20%)	4 (4=61-80%)	1 (1=0-20%)	1 (1=0-20%)	2 (2=21-40%)	3 (3=41-60%)	1 (1=0-20%)	3 (3=41-60%)	1 (1=0-20%)	0	0	1 (1=0-20%)	Pre-emergence Test ECHCG, percentage damage caused to the plant (five-point scale) ([11]; 250 g/Ha (*)): 0; Pre-emergence Test ECHCG, percentage damage caused to the plant (five-point scale) ([11]; 1000 g/ha): 3 (3=41-60%); Pre-emergence Test AMAPA, percentage damage caused to the plant (five-point scale) ([12]; 250 g/Ha (*)): 0; Pre-emergence Test AMAPA, percentage damage caused to the plant (five-point scale) ([12]; 1000 g/ha): 1 (1=0-20%)
CCn1c(Cn2cc(C(F)F)cn2)cc(=O)c(C(=O)O)c1-c1ccc(Cl)c(Cl)c1 [Compound 109, 2-(3,4-dichlorophenyl)-6-[[4-(difluoromethyl)pyrazol-1-yl]methyl]-1-ethyl-4-oxo-pyridine-3-carboxylic acid]	0	0	0	0	3 (3=41-60%)	4 (4=61-80%)	1 (1=0-20%)	4 (4=61-80%)	2 (2=21-40%)	5 (5=81-100%)	1 (1=0-20%)	3 (3=41-60%)	1 (1=0-20%)	4 (4=61-80%)	2 (2=21-40%)	3 (3=41-60%)	0	1 (1=0-20%)	0	3 (3=41-60%)	Pre-emergence Test ECHCG, percentage damage caused to the plant (five-point scale) ([11]; 250 g/Ha (*)): 3 (3=41-60%); Pre-emergence Test ECHCG, percentage damage caused to the plant (five-point scale) ([11]; 1000 g/ha): 5 (5=81-100%); Pre-emergence Test AMAPA, percentage damage caused to the plant (five-point scale) ([12]; 250 g/Ha (*)): 0; Pre-emergence Test AMAPA, percentage damage caused to the plant (five-point scale) ([12]; 1000 g/ha): 0

Reference: patent publication US20250098679A1, “HERBICIDAL PYRIDONE DERIVATIVES” (SYNGENTA CROP PROTECTION AG, priority 2021, published 2025)
